Among the data in patent publication US9758527B2, “Cyclohexene derivative, preparation method therefor, and pharmaceutical composition for preventing or treating metabolic diseases, containing same as active ingredient” (HYUNDAI PHARM CO., LTD., priority 2014, dated 2017) are EC50 values, retold here.

Like-named read-outs stand apart in the source and are kept apart here.

The experiment deals with T1, G protein-coupled receptor 119 (GPR-119) (Mesocricetus auratus, UniProt A0A1U8CD06).
T1 construct: hamster-derived β-cells containing G protein-coupled receptor 119 (GPR-119), HIT-T15 cells; host or cells: HIT-T15 (hamster pancreatic β-cells)
T1 sequence (A0A1U8CD06 1-334): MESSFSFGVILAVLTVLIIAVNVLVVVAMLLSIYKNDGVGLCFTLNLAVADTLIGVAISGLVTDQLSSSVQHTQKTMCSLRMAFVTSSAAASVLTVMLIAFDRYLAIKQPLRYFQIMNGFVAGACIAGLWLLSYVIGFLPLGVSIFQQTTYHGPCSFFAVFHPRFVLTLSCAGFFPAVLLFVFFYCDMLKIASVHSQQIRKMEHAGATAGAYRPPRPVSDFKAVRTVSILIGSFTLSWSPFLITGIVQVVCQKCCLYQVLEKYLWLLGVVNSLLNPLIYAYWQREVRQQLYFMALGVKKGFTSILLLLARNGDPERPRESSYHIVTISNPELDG
Put plainly: Evaluation of cAMP activity in HIT-T15 cells (HTRF cAMP dynamic kit). The conditions noted are these: cAMP activation. The class given is cell-based, hamster. A digest of the protocol: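 HIT-T15 cells, 60,000/well, treated next day with compound at six concentrations ([…]) for 1 h at 37° C. Lysate cAMP quantified by HTRF competitive immunoassay (D2-cAMP, cryptate anti-cAMP); activity taken as change in FRET signal relative to DMSO.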
For orientation: TR-FRET usually uses a lanthanide donor and a delayed reading to cut background.

Where [1] appears, read: 1 h at 37° C., six concentrations, read-out: EC50.
Setting [2] is: EC50 (nM), 1 h at 37° C., six concentrations.

As a reminder, the EC50 is the midpoint of the concentration-response curve. For `CC(C)c1noc(N2CCC(COc3ccc(C4=CCC(C(=O)NC[C@@H](C)O)CC4)cc3)CC2)n1` (stereo partly drawn) [Example 28, N-((R)-2-hydroxypropyl)-4-(4-((1-(3-isopropyl-1,2,4-oxadiazol-5-yl)piperidin-4-yl)methoxy)phenyl)cyclohex-3-enecarboxamide], the EC50 under setting [1] was 110 nM.

Turning to `CCc1cnc(N2CCC(COc3ccc(C4=CCC(C(=O)NC[C@@H](C)O)CC4)cc3)CC2)nc1` (stereo partly drawn) [Example 30, 4-(4-((1-(5-ethylpyrimidin-2-yl)piperidin-4-yl)methoxy)phenyl)-N-((R)-2-hydroxypropyl)cyclohex-3-enecarboxamide], the EC50 under setting [1] is 105 nM.

In the case of `CC(C)c1noc(N2CCC(COc3ccc(C4=CCC(C(=O)NCCC(=O)N5CCC[C@H]5C(N)=O)CC4)cc3F)CC2)n1` (stereo partly drawn) [Example 134, (2S)-1-(3-(4-(3-fluoro-4-((1-(3-isopropyl-1,2,4-oxadiazol-5-yl)piperidin-4-yl)methoxy)phenyl)cyclohex-3-enecarboxamido)propanoyl)pyrrolidine-2-carboxamide], under setting [1], the EC50 was determined as 350 nM.

With `CC(C)c1noc(N2CCC(COc3ccc(C4=CCC(C(=O)N5CCC[C@@H]5C#N)CC4)cc3F)CC2)n1` (stereo partly drawn) [Example 117, (2R)-1-(4-(3-fluoro-4-((1-(3-isopropyl-1,2,4-oxadiazol-5-yl)piperidin-4-yl)methoxy)phenyl)cyclohex-3-enecarbonyl)pyrrolidine-2-carbonitrile], the concentration for a half-maximal effect (EC50) under setting [1] worked out at 11 nM and the EC50 (read-out: EC50 value) was at most 50 nM.

Regarding `CCc1cnc(N2CCC(COc3ccc(C4=CCC(C(=O)N5CCOCC5)CC4)cc3)CC2)nc1` (centres unmarked) [Example 13, (4-(4-((1-(5-ethylpyrimidin-2-yl)piperidin-4-yl)methoxy)phenyl)cyclohex-3-enyl)(morpholino)methanone], the EC50 was 13 nM under setting [1] and at most 50 nM (read-out: EC50 value).

Regarding `CC(C)(C)OC(=O)N1CCC(COc2ccc(C3=CCC(C(=O)NC[C@H](O)CO)CC3)c(F)c2)CC1` (stereo partly drawn) [Example 132, tert-butyl 4-((4-(4-((S)-2,3-dihydroxypropylcarbamoyl)cyclohex-1-enyl)-3-fluorophenoxy)methyl)piperidine-1-carboxylate], under setting [1], the EC50 was 210 nM.

Regarding `CCc1cnc(N2CCC(COc3ccc(C4=CCC(C(=O)N(C)CCCO)CC4)cc3)CC2)nc1` (centres unmarked) [Example 242, 4-(4-((1-(5-ethylpyrimidin-2-yl)piperidin-4-yl)methoxy)phenyl)-N-(3-hydroxypropyl)-N-methylcyclohex-3-enecarboxamide], the EC50 under setting [1] was determined as 21 nM and the concentration for a half-maximal effect (EC50) (read-out: EC50 value) is at most 50 nM.

As for `CC(C)(C)OC(=O)N1CCC(COc2ccc(C3=CCC(C(=O)N4CCC5(CC4)OCCO5)CC3)cc2)CC1` (centres unmarked) [Example 263, tert-butyl 4-((4-(4-(1,4-dioxa-8-azaspiro[4.5]decane-8-carbonyl)cyclohex-1-enyl)phenoxy)methyl)piperidine-1-carboxylate], the EC50 reads like this: under setting [2], 9 nM; (EC50 value) at most 50 nM.

With `CC(C)(C)OC(=O)N1CCC(COc2ccc(C3=CCC(C(=O)N4CCc5ccccc5C4)CC3)cc2)CC1` (centres unmarked) [Example 239, tert-butyl 4-((4-(4-(1,2,3,4-tetrahydroisoquinoline-2-carbonyl)cyclohex-1-enyl)phenoxy)methyl)piperidine-1-carboxylate], the EC50 under setting [1] was 22 nM.

In the case of `CC(C)c1noc(N2CCC(COc3ccc(C4=CCC(C(=O)NCCO)CC4)cc3F)CC2)n1` (centres unmarked) [Example 120, 4-(3-fluoro-4-((1-(3-isopropyl-1,2,4-oxadiazol-5-yl)piperidin-4-yl)methoxy)phenyl)-N-(2-hydroxyethyl)cyclohex-3-enecarboxamide], under setting [1], the EC50 was 80 nM.

For `CC(C)c1noc(N2CCC(COc3ccc(C4=CCC(C(=O)NC[C@@H](C)O)CC4)nc3)CC2)n1` (stereo partly drawn) [Example 38, N-((R)-2-hydroxypropyl)-4-(5-((1-(3-isopropyl-1,2,4-oxadiazol-5-yl)piperidin-4-yl)methoxy)pyridin-2-yl)cyclohex-3-enecarboxamide], the EC50 under setting [1] turned out to be 450 nM.

As to `CC(C)c1noc(N2CCC(COc3ccc(C4=CCC(C(=O)N5CCCC5)CC4)cc3)CC2)n1` (centres unmarked) [Example 52, (4-(4-((1-(3-isopropyl-1,2,4-oxadiazol-5-yl)piperidin-4-yl)methoxy)phenyl)cyclohex-3-enyl)(pyrrolidin-1-yl)methanone], the EC50 under setting [1] is 55 nM.

Regarding `COC(=O)CNC(=O)C1CC=C(c2ccc(OCC3CCN(c4nc(C(C)C)no4)CC3)c(F)c2)CC1` (centres unmarked) [Example 109], the EC50 under setting [1] was 190 nM.

Turning to `CC(C)(C)OC(=O)N1CCC(COc2ccc(C3=CCC(C(=O)NCC(F)F)CC3)cc2F)CC1` (centres unmarked) [Example 85, tert-butyl 4-((4-(4-(2,2-difluoroethylcarbamoyl)cyclohex-1-enyl)-2-fluorophenoxy)methyl)piperidine-1-carboxylate], the EC50 by setting is: under setting [1], 18 nM; (read-out: EC50 value) at most 50 nM.

As to `C[C@H](CO)NC(=O)C1CC=C(c2ccc(OCC3CCN(C(=O)OC(C)(C)C)CC3)c(F)c2)CC1` (stereo partly drawn) [Example 60, tert-butyl 4-((2-fluoro-4-(4-((R)-1-hydroxypropan-2-ylcarbamoyl)cyclohex-1-enyl)phenoxy)methyl)piperidine-1-carboxylate], the EC50 by setting is: under setting [1], 40 nM; (read-out: EC50 value) at most 50 nM.

Consider `CC(C)c1noc(N2CCC(COc3ccc(C4=CCC(C(=O)NCC(F)(F)F)CC4)cc3)CC2)n1` (centres unmarked) [Example 78, 4-(4-((1-(3-isopropyl-1,2,4-oxadiazol-5-yl)piperidin-4-yl)methoxy)phenyl)-N-(2,2,2-trifluoroethyl)cyclohex-3-enecarboxamide], for which the EC50 under setting [1] turned out to be 100 nM.

Consider `CC(C)c1noc(N2CCC(COc3ccc(C4=CCC(C(=O)N5CCC(=NO)CC5)CC4)cc3)CC2)n1` (centres unmarked) [Example 276, (4-(hydroxyimino)piperidin-1-yl)(4-(4-((1-(3-isopropyl-1,2,4-oxadiazol-5-yl)piperidin-4-yl)methoxy)phenyl)cyclohex-3-enyl)methanone], for which, under setting [1], the 50% effective concentration (EC50) came to 29 nM.

Consider `CC(C)c1noc(N2CCC(COc3ccc(C4=CCC(C(=O)NCC(=O)N5CCC[C@@H]5C(N)=O)CC4)cc3F)CC2)n1` (stereo partly drawn) [Example 121, (2R)-1-(2-(4-(3-fluoro-4-((1-(3-isopropyl-1,2,4-oxadiazol-5-yl)piperidin-4-yl)methoxy)phenyl)cyclohex-3-enecarboxamido)acetyl)pyrrolidine-2-carboxamide], for which the EC50 under setting [1] is 500 nM.

Take `CCc1cnc(N2CCC(COc3ccc(C4=CCC(C(=O)N5CCC(=O)CC5)CC4)cc3)CC2)nc1` (centres unmarked) [Example 274, 1-(4-(4-((1-(5-ethylpyrimidin-2-yl)piperidin-4-yl)methoxy)phenyl)cyclohex-3-enecarbonyl)piperidin-4-one]: the EC50 runs as follows: under setting [2], 27 nM; (EC50 value) at most 50 nM.

As to `CC(C)c1noc(N2CCC(COc3ccc(C4=CCC(C(=O)NC[C@@H](O)CO)CC4)cc3)CC2)n1` (stereo partly drawn) [Example 17, N-((R)-2,3-dihydroxypropyl)-4-(4-((1-(3-isopropyl-1,2,4-oxadiazol-5-yl)piperidin-4-yl)methoxy)phenyl)cyclohex-3-enecarboxamide], the EC50 under setting [1] worked out at 85 nM.

As to `CC(C)(C)OC(=O)N1CCC(COc2ccc(C3=CCC(C(=O)NC4CC4)CC3)c(F)c2)CC1` (centres unmarked) [Example 137, tert-butyl 4-((4-(4-(cyclopropylcarbamoyl)cyclohex-1-enyl)-3-fluorophenoxy)methyl)piperidine-1-carboxylate], the EC50 under setting [1] was 60 nM.

Regarding `C[C@@H](O)CNC(=O)C1CC=C(c2ccc(OCC3CCN(C(=O)OC(C)(C)C)CC3)nc2)CC1` (stereo partly drawn) [Example 27, tert-butyl 4-((5-(4-((R)-2-hydroxypropylcarbamoyl)cyclohex-1-enyl)pyridin-2-yloxy)methyl)piperidine-1-carboxylate], the EC50 under setting [1] turned out to be 310 nM.

As to `CC(C)(C)OC(=O)N1CCC(COc2ccc(C3=CCC(C(=O)N4CC[C@H](O)C4)CC3)cn2)CC1` (stereo partly drawn) [Example 42, tert-butyl 4-((5-(4-((S)-3-hydroxypyrrolidine-1-carbonyl)cyclohex-1-enyl)pyridin-2-yloxy)methyl)piperidine-1-carboxylate], the EC50 under setting [1] worked out at 82 nM.

As to `CC(C)c1noc(N2CCC(COc3ccc(C4=CCC(C(=O)N(C)CCCO)CC4)cc3)CC2)n1` (centres unmarked) [Example 243, N-(3-hydroxypropyl)-4-(4-((1-(3-isopropyl-1,2,4-oxadiazol-5-yl)piperidin-4-yl)methoxy)phenyl)-N-methylcyclohex-3-enecarboxamide], the EC50 is, setting by setting: under setting [1], 30 nM; (read-out: EC50 value) at most 50 nM.

For `CC(C)(C)OC(=O)N1CCC(COc2ccc(C3=CCC(C(=O)N4CCOCC4)CC3)cn2)CC1` (centres unmarked) [Example 70, tert-butyl 4-((5-(4-(morpholine-4-carbonyl)cyclohex-1-enyl)pyridin-2-yloxy)methyl)piperidine-1-carboxylate], the EC50 by setting is: under setting [1], 45 nM; (read-out: EC50 value) at most 50 nM.

As to `CC(C)(C)OC(=O)N1CCC(COc2ccc(C3=CCC(C(=O)NC[C@H](O)CO)CC3)cc2F)CC1` (stereo partly drawn) [Example 63, tert-butyl 4-((4-(4-((S)-2,3-dihydroxypropylcarbamoyl)cyclohex-1-enyl)-2-fluorophenoxy)methyl)piperidine-1-carboxylate], the half-maximal effective concentration (EC50) under setting [1] was determined as 110 nM.
